The values below come from US20260274955A1, “ANTIBODIES FOR TARGETING CD28 AND USES THEREOF” (Janux Therapeutics, Inc., priority 2023, published 2026).

Test [1] concerns Ab-1. The test is described as follows: Kinetic binding via BLI (Octet): Ab-1 binding to peptide-loaded sensors. As to conditions: Table 15, 100 nM Ab-1. Also on record: species or system human. As to the method: Kinetic binding of the peptides of Table 1 to Ab-1 was evaluated using biolayer interferometry (BLI). Briefly, biotinylated peptides were loaded onto a streptavidin coated Octet® SAX biosensor, quenched in biocytin, and baselined in buffer. Ab-1 was titrated in solution and associated onto the peptide loaded sensor. After a short association period, sensors were transferred into buffer and the dissociation of bound Ab-1 was measured. Association and dissociation signals were recorded in real time and analyzed using a 1:1 binding model within the instrument software. Analysis using a 1:1 binding model enabled the calculation of the on and off rate constants as well as affinity, KD.
For orientation: Biolayer interferometry detects binding as a change in optical thickness at a sensor tip.

In test [2] the target is anti-CD28 Fab (SEQ ID NOs: 202, 203). The test is described as follows: Competition ELISA: peptide inhibition of anti-CD28 Fab binding to plate-bound CD28 (also alanine scanning peptides). The conditions noted are these: anti-CD28 Fab fixed at 1 nM, titrated 0-100 μM peptides, plate-bound CD28 antigen; read-out: anti-CD28 Fab Competition ELISA IC50. The procedure:
Ab-1 fixed at 1 nanomolar (nM) concentration was pre-incubated with 0-100 micromolar (μM) titrated peptides. After a short pre-incubation period, the mixture of titrated peptide with fixed Ab-1 were added to the CD28 antigen coated plates. After a short incubation on the plates, bound Ab-1 was detected with a standard horse radish peroxidase conjugated secondary antibody.
(§1) The anti-CD28 Fab was fixed at a concentration of 1 nM and incubated with titrated 0-100 μM peptides.
(In an ELISA, binding on a coated surface is turned into a signal by an enzyme label.)

In test [3] the target is anti-CD28 scFv (disulfide) (SEQ ID NO: 67). Kind of test: Competition ELISA: peptide inhibition of anti-CD28 scFv (disulfide) binding to plate-bound CD28. The conditions noted are these: read-out: anti-CD28 scFv (disulfide) Competition ELISA IC50; anti-CD28 scFv fixed at 0.3 nM, titrated 0-100 μM peptides, plate-bound CD28 antigen. The procedure: […] After a short pre-incubation period, the mixture of titrated peptide with fixed Ab-1 were added to the CD28 antigen coated plates. After a short incubation on the plates, bound Ab-1 was detected with a standard horse radish peroxidase conjugated secondary antibody.
as §1

Where only a bound is given, the exact number is not on record here.

As usually defined, the IC50 is the concentration needed to halve the response being measured.

Sequence of anti-CD28 Fab (SEQ ID NOs: 202, 203) (as listed by the source): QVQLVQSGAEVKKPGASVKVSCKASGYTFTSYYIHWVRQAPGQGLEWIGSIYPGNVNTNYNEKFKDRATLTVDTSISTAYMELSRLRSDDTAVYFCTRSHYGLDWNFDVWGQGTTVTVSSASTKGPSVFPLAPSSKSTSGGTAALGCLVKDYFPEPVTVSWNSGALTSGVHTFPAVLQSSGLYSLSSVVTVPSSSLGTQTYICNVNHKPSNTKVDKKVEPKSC
Sequence of anti-CD28 Fab (SEQ ID NOs: 202, 203) (as listed by the source): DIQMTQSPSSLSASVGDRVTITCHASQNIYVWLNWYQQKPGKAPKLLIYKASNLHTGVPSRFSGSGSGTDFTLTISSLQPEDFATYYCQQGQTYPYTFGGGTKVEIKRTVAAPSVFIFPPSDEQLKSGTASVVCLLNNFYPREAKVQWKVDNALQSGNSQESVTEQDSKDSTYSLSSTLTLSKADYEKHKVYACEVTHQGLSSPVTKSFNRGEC
Sequence of anti-CD28 scFv (disulfide) (SEQ ID NO: 67) (as listed by the source): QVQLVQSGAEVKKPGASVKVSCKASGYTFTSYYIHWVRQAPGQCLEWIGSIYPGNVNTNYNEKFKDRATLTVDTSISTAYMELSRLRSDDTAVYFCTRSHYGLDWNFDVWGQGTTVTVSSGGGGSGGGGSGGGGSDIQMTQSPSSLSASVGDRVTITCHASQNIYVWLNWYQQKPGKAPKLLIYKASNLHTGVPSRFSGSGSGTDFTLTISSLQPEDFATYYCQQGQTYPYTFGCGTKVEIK

Regarding Met(O)2-DWCPRDLWVHCFA [Peptide-21], the “Octet signal (20 nM peptide)” value in test [1] was found to be 0.4179.
On to Met(O)-DWCPRDLWVHCFA [Peptide-20], for which, in test [1], the “Octet signal (20 nM peptide)” value is on record as 0.1733.
With “YCAGHAWQYINACL [Peptide-67, alanine scanning peptide of Peptide-39]”, the IC50 in test [2] and in test [3] was greater than 100 µM each time.
